Data reported in patent US10369167B2, “Continuously expressed therapeutic RNAs for targeted protein binding and methods for their use” (priority 2016, dated 2019).
Values joined by “and” are separate entries in the source; they are usually repeats but may differ in a detail not shown here. Equal values may be shown once.

Legend:
[1] = biological target: T1, HIS tagged HIV-1 Integrase (HIS-IN) (Human immunodeficiency virus type 1 group M subtype B, UniProt P12497, C1427S/F1332K); type: binding
T1 construct: HIS tagged HIV-1 Integrase (HIS-IN) expression vector; made in house; host or cells: E. coli strain C3016
Protocol: The gel mobility shift assay was carried out as described (Zhou, et al, 2009). RNA aptamers were transcribed from annealed oligonucleotide pairs (Table 1) containing T7 promoter sequences using Megashortscript T7 transcription kit (Thermofisher Scientific, Waltham, Mass., USA). Percentage binding was determined by Image J (http://imagej.nih.gov/ij/index.html). ^32P labeled and folded aptamers (final concentration of 2 nM) were incubated with HIS-IN protein (final concentration of 0, 20, 40, 80, 160 and 320 nM) at 37° C. for 30 min. The complexes were then separated by 5% native polyacrylamide gel. Autoradiographs were acquired via Typhoon phosphorimaging system (GE Healtcare Life Science, Pittsburgh Pa. 15264, USA). Digital images were imported and analyzed by ImageJ software (http://imagej.nih.gov/ij/index.html). 50 percent binding values were determined by the Prism 6 software (GraphPad Software Inc) using non-linear curve regression. Northern analysis of total or fractionated RNAs was carried out as described (Castanott, et al., 2009) using probes listed in primer list (Table 1). Quantification of relative band intensity was measured and calculated using Image J software.

HIV7-GFP lentivirus = assay: Single cycle lentivirus HIV7-GFP challenge of stable HEK293 cells, FACS; type: cell-based, HIV; conditions: aptamer alone expressed directly from U6 promoter, HEK293, MOI 0.3, FACS 10 days after transduction
Description: A direct functional assay was used to test the inhibitory effect of the aptamer candidates for combinational gene therapy in T cells or hematopoietic stem cells (HSC). To this end, plasmids (pJR255) consisting of: 1) a U6 promoter for inducing the expression of the aptamers, 2) a G418 resistant cassette for selection, and 3) an mCherry marker for cell purification and functional analysis were generated. (FIG. 11). RNAs expressed from U6 (pol III) promoter lack nucleus export signals and stay in the nucleus (18,19,20,21). Integrase functions primarily in the nucleus. […] Each population of cells was transduced with lentiHIV particles at an MOI of 0.3. The transduced cells were analyzed by FACS 10 days after transduction to minimize the effects of GFP from nonintegrated viral DNA. If an aptamer exerts any inhibition of HIV integrase, the percentage of GFP and mCherry double-positive cells should be reduced compared to the control.
For the lentivirus challenge, 5×10^4 HEK293 cells stably expressing the aptamer alone, the shRNA alone or the shRNA-aptamer fusions were transduced with HIV7-GFP lentivirus particles at an MOI of 0.3 in 500 μl cell culture medium. Cells were harvested 10 days post-transduction and analyzed by FACS. […] The HIV concentration of cells in culture was determined using a P24 assay with an Alliance HIV-1 P24 ELISA kit. […]

HIV-1 Ba-L strain = assay: HIV challenge of stable Ghost3 (Ghost3+CXCR4+CCR5) cells, P24 assay; type: cell-based
Protocol: Ghost 3+CXCR4+CCR5 cells, HIV NL4-3 and Ba-L strains were obtained from the NIH AIDS Reagent Program. Ghost cells and HEK293 cells (ATCC CRL-1573) were grown on DMEM supplemented with 10% FBS and 1 mM Glutamine. CCRF-CEM (ATCC CRM-CCL-119) cells were grown in RPMI supplemented with 10% FBS and 1 mM Glutamine. HEK293 and Ghost cells were transfected with Lipofectamine 2000 according to the manufacturer's protocol (ThermoFisher, Waltham, Mass., USA). To generate stable HEK293 cell lines, 2 million cells were transfected with pJR255-based plasmids that express aptamers alone, shLuc, or shLuc-aptamer fusions. Transfected cells were selected with G418 (Gold Biotechnology, St. Louis, Mo., USA) for 10 to 14 days, followed by Fluorescent Activated Cell Sorting (FACS) to isolated mCherry positive cells. Typically, the brightest 10 to 30% of cells were collected. Second FACS was performed 7 to 10 days after the first sort to isolate stable cell populations. […] Ghost cells were already G418 resistant, therefore, no selection step was performed. 0.5M cells were transfected with pJR255 based plasmids that express shLuc, aptamer alone or shLuc-aptamer fusions. Transfected cells were sorted 7 days after transfection. Compared to HEK293 cells, the percentage of mCherry positive cells was much lower because no drug selection was applied. Typically, the brightest 5 to 10% of cells were collected. A second sort was performed 14 days later. If a decrease in mCherry signal was observed, a third sort was performed.
(§1) For the lentivirus challenge, 5×10^4 HEK293 cells stably expressing the aptamer alone, the shRNA alone or the shRNA-aptamer fusions were transduced with HIV7-GFP lentivirus particles at an MOI of 0.3 in 500 μl cell culture medium. Cells were harvested 10 days post-transduction and analyzed by FACS. For an initial HIV challenge, 5×10^4 Ghost(3)X4/R5 cells stably expressing shRNA alone or shRNA-aptamer fusions were infected with HIV-1 Ba-L strain at an MOI of 0.02 in 500 μl medium. The HIV concentration of cells in culture was determined using a P24 assay with an Alliance HIV-1 P24 ELISA kit. (PerkinElmer, Waltham, Mass., USA). For a long term HIV challenge, 1×10^5 CCRF-CEM cells stably expressing shRNA or shRNA-aptamer fusions were infected with HIV-1 NL4-3 viruses at MOI of 0.02 in 500 μl medium. […]
To test if the shRNA-fusions can exert inhibition during subsequent infection cycles using replication competent HIV, stable Ghost3+CXCR4+CCR5 cell lines expressing the shLuc alone and the shLuc-S1R1, shLuc-S3R1 and shLuc-53R3 fusions were generated (abbreviated as Ghost3 cells in following text) (Morner, et al., 1999). […] The HIV concentration in cultures was monitored by P24 assay for 9 days.

HIV = conditions: 10% FBS cell culture; cited from earlier work
firefly luciferase = assay: Luciferase assay in HEK293 clone stably expressing firefly luciferase; type: cell-based; conditions: U6 driven shLuc or shLuc-aptamer fusion, Day 2 or Day 3 after transfection
Protocol: A HEK293 cell clone stably expressing firefly luciferase was transfected with the plasmids expressing the shLuc or the shLuc-aptamer fusions. Cells were harvested two or three days post-transfection and their firefly luciferase activities were determined by the Luciferase Assay System (Promega, Madison, Wis., USA).
Using a luciferase assay, export of the shRNA-aptamer fusion into the cytoplasm was tested. […] (FIG. 4B). […] Northern blot analyses on fractionated samples were performed to further assess the distribution and processing of the shLuc-aptamer fusion.

HIV-1 NL4-3 = assay: Long term HIV challenge of stable CCRF-CEM cells, p24 assay; type: cell-based; conditions: pNL4-3 MOI 0.01, monitored six weeks
Protocol: To generate stable CCRF-CEM cell lines, 2 million cells were transfected with […]-based plasmids, that express shLuc, shLuc-S1R1, shLuc-S3R1 and shLuc-S3R3, by electroporation using the Nucleofactor kit according to the manufacturer's protocol (Lonza, Basel, Switzerland). G418 selection and FACS were performed similar to that of HEK293 cells.
as §1, with “USA).” for “USA). For a long term HIV challenge, 1×10^5 CCRF-CEM cells stably expressing shRNA or shRNA-aptamer fusions were infected with HIV-1 NL4-3 viruses at MOI of 0.02 in 500 μl medium.”
The long-term efficacy of shRNA-aptamer fusions in CD4 positive T cells was tested using CEM cells stably expressing shLuc, shLuc-S3R3, shS1 or shS1-S3R3. […] HIV concentrations were monitored for six weeks by p24 assay (FIG. 8). […] In summary, anti-integrase aptamer expressed as an shRNA-aptamer fusion can confer long term resistance to HIV-1 replication in T cells. […]

[2] = Human immunodeficiency virus 1, BAL, 216 h, read-out: inhibition of HIV replication

Molecule: S3R3: anti-HIV integrase RNA aptamer; variable region CGTCGTATGCTGCGCCATGGGGTGGACTG (SEQ ID NO:5) (variable region only, further chemistry not given here)
- Kd ([1]; 2 nM 32P labeled aptamer, HIS-IN 0-320 nM, 37° C. 30 min, read-out: binding affinity to HIS-IN (50 percent binding value)): 47 nM
- binding affinity to HIS-IN compared to S1R1 ([1]; gel shift): higher binding affinity
- inhibition of HIV-7GFP integration (HIV7-GFP lentivirus): did not inhibit
- HIV inhibition, in words (HIV-1 Ba-L strain; Ba-L, Ghost3 cells, p24 monitored for 9 days): weaker than a low dose of Raltegravir

Molecule: Cc1nnc(C(=O)NC(C)(C)c2nc(C(=O)NCc3ccc(F)cc3)c(O)c(=O)n2C)o1 [Raltegravir, reference compound]
- inhibition at 0.002 µM (HIV-1 Ba-L strain; [2]): 96%
- inhibition at 0.02 µM (HIV-1 Ba-L strain; [2]): > 99%
- IC50 (HIV): 2 nM
- IC95 (HIV): 20 nM

B1: shLuc: U6 promoter driven shRNA targeting luciferase with an artificial 10 bases loop (nucleic acid)
chain 1: CACCGCTTACGCTGAGTACTTCGAAATTGAAGCTTGTTTCGAAGTACTCAGCGTAAG
chain 2: AAAACTTACGCTGAGTACTTCGAAACAAGCTTCAATTTCGAAGTACTCAGCGTAAGC
modifications: the letters are possibly those of the target site
notes: U6 promoter driven shRNA targeting luciferase with an artificial 10 bases loop
- inhibition of luciferase activity (firefly luciferase): slightly stronger

B2: shLuc-S3R3: shLuc-aptamer fusion with integrase aptamer S3R3 (SEQ ID NO: 23, 24) (nucleic acid)
DNA 1: CACCGCTTACGCTGAGTACTTCGAAACAAGGAGGACGATGCGGGCCGTCGTATGCTGCGCCATGGGGTGGACTGGGTGGCGCGAAGTTCGAAGTACTCAGCGTAAG
DNA 2: AAAACTTACGCTGAGTACTTCGAACTTCGCGCCACCCAGTCCACCCCATGGCGCAGCATACGACGGCCCGCATCGTCCTCCTTGTTTCGAAGTACTCAGCGTAAGC
modifications: expressed or natural sequence; the letters are possibly those of the target site
- inhibition of HIV replication (relative P24 concentration compared to shLuc control) (HIV-1 Ba-L strain; Ghost3 cells expressing shRNA or shRNA-aptamer fusion, Ba-L MOI 0.02, Day 9): ~85% and 78%
- viral concentration (p24) relative to control (shLuc) (HIV-1 NL4-3): more than three orders of magnitude lower

B3: S3R1: anti-HIV integrase RNA aptamer, oligos JRO502/JRO503 (SEQ ID NO: 15, 16) (nucleic acid)
DNA 1: CACCGCGGGCCCTAGACGCGCTGCCGTGGAGGAGGAGGTTGGTGGCGCGAGAGGTG
DNA 2: AAAACACCTCTCGCGCCACCAACCTCCTCCTCCACGGCAGCGCGTCTAGGGCCCGC
modifications: listed as DNA, chemistry not fully specified; the letters are possibly those of the target site
- inhibition of HIV-7GFP integration (HIV7-GFP lentivirus): did not inhibit
